Results from US20240424111A1, “Degrader Compounds and Uses Thereof” (CALICO LIFE SCIENCES LLC, priority 2021, published 2024).

Columns and labels:
PTPN2 [1] = molecular target: T1, PTPN2 (Homo sapiens, UniProt P17706); assay: HiBiT PTPN2 degradation in 293T.109 (HiBiT-PTPN2) cells, 24 hours; format: cell-based; details: 293T.109 cells
T1 construct: expressed in transfected cells; host or cells: 293T.109 (HiBiT-PTPN2), derived from 293T WT (ATCC)
T1 sequence (P17706 1-415): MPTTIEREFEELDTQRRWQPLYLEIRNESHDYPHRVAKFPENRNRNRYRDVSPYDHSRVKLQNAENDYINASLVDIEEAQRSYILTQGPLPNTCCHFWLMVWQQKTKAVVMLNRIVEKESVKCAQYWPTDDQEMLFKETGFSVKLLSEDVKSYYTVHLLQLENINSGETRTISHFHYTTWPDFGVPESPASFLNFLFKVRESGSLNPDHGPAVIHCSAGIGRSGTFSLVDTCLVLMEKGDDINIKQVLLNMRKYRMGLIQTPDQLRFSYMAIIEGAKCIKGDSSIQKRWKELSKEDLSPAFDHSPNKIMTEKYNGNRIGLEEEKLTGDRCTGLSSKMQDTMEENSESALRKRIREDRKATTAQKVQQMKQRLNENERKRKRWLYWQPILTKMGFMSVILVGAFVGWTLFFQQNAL
Summary of the method: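 293T cells stably expressing N-terminal HiBiT-tagged PTPN2 were treated for 24 h at 37 °C with compound in an 11-point half-log series from 10 μM top concentration, in duplicate. Remaining HiBiT-PTPN2 was measured by lytic luminescence, with untreated cells as the negative control and wells without lytic reagent as the positive control.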

PTPN2 [2] = molecular target: T2, PTPN2 (Mus musculus, UniProt Q06180); assay: HiBiT PTPN2 degradation in B16F10.4 cells, 24 hours; format: cell-based
T2 construct: HiBiT; host or cells: B16F10.4
T2 sequence (Q06180 1-406): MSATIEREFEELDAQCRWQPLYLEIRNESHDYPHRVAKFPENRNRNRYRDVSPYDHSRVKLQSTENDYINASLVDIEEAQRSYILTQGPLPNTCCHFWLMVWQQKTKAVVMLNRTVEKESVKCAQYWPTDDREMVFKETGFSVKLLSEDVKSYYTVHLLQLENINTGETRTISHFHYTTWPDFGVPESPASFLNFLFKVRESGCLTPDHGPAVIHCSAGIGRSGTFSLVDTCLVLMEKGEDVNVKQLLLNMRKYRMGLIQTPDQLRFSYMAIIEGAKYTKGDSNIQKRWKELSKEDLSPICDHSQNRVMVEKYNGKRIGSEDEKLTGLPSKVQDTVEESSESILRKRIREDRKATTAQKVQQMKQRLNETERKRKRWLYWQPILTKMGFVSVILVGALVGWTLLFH
Summary of the method: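 PTPN2 degradation was measured via luminescence from the Nano-Glo® HiBiT Lytic Assay kit. Compounds were dispensed into 384-well plates at an 11-point half-log titration in duplicate, starting at 10 μM. Cells were added at 5000 per well and held at 37° C. with 5% CO2 for 24 hours. Untreated cells were the negative control and cells without lytic reagent the positive control. Lytic reagents were then added and luminescence read on an EnVision™ Multilabel Reader.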

Cn1c(=O)n(C2CCC(=O)NC2=O)c2ccc([C@@H]3CCCN(CC(=O)Nc4ccc5c(F)c(N6CC(=O)NS6(=O)=O)c(O)cc5c4)C3)cc21 (stereo partly shown) [Degrader 152]
DC50 (PTPN2 [1]): 50 to 150 nM | DC50 (PTPN2 [2]): 150 to 500 nM

Cn1c(=O)n(C2CCC(=O)NC2=O)c2ccc(-n3cc(CC(=O)Nc4ccc5c(F)c(N6CC(=O)NS6(=O)=O)c(O)cc5c4)cn3)cc21 (stereo not shown) [Degrader 153]
DC50 (PTPN2 [1]): 150 to 500 nM | DC50 (PTPN2 [2]): 50 to 150 nM

O=C1CCC(N2CCc3cc(C4CCN(CC(=O)N5CCC(c6ccc7cc(O)c(N8CC(=O)NS8(=O)=O)c(F)c7c6)CC5)CC4)ccc32)C(=O)N1 (stereo not shown) [Degrader 154]
DC50 (PTPN2 [1]): 150 to 500 nM | DC50 (PTPN2 [2]): 150 to 500 nM

O=C1CCC(N2C(=O)c3cccc4c(-c5ccc(CC(=O)Nc6ccc7c(F)c(N8CC(=O)NS8(=O)=O)c(O)cc7c6)cc5)ccc2c34)C(=O)N1 (stereo not shown) [Degrader 155]
DC50 (PTPN2 [1]): 150 to 500 nM | DC50 (PTPN2 [2]): 50 to 150 nM

Cn1c(=O)n(C2CCC(=O)NC2=O)c2ccc(C3=CCC(CC(=O)Nc4ccc5c(F)c(N6CC(=O)NS6(=O)=O)c(O)cc5c4)CC3)cc21 (stereo not shown) [Degrader 157]
DC50 (PTPN2 [1]): 50 to 150 nM | DC50 (PTPN2 [2]): 50 to 150 nM
